Experimental data from patent publication US20040162422A1, “Chemical compounds” (priority 2001, published 2004).
Values belong to the molecule of their own block, whether it stands above or below them.

Experiments:
[1] = target: T1, human adenosine A3 receptors (Homo sapiens, UniProt P0DMS8); assay: Reporter gene experiments in CHO cells (CRE/SPAP, inhibition of forskolin-stimulated SPAP production); assay type: cell-based; conditions: ECR = equipotent concentration ratio relative to NECA = 1; agonist potency, CHO CRE/SPAP reporter gene assay
T1 construct: expressed in transfected cells; host or cells: Chinese hamster ovary (CHO) cells with CRE/SPAP/HYG reporter
T1 sequence (P0DMS8 1-318): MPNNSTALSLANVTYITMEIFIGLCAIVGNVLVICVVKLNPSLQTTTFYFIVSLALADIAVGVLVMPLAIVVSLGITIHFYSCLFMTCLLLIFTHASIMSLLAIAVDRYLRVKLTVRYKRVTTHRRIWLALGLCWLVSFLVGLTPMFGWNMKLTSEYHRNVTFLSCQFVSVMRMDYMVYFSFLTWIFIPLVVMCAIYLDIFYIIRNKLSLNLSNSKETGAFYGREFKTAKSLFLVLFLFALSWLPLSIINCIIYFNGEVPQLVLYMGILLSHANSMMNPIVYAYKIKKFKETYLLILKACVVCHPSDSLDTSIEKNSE
Description: The compounds useful in the invention are agonists at the adenosine A1 receptor. Preferably they are selective agonists at the adenosine A1 receptor. By selective is meant that the affinity for the A1 receptor is at least 2 times, preferably 5 times and more preferably 10 times greater than the other adenosine receptor subtypes, particularly A3. Agonist selectivity of compounds against other human adenosine receptors can be determined using Chinese hamster ovary (CHO) cells transfected with the gene for the relevant human adenosine receptor following a method based on that of Castanon, K V. and Spevak, W. (1994) Biochem. Biophys. Res. Commun. 198, 626-631. The CHO cells are also transfected with cyclic AMP response elements promoting the gene for secreted placental alkaline phosphatase (SPAP) (Wood, K V. (1995) Cuff. Opinion. Biotechnology, 6, 50-58). The effect of test compounds is determined by their effects on basal levels of cAMP (A2a) or on forskolin-enhanced cAMP (A1 and A3) as reflected by changes in levels of SPAP. EC50 values for compounds are determined as a ratio to that of the non-selective agonist N-ethyl carboxamidoadenosine (NECA). “Adenosine receptors: New opportunities for future drugs” (S. A. Poulsen et al, Bioorg. Med. Chem,. 1998, 6, 619-641) summarises disease conditions that may be treated with adenosine A1 agonists.
Reporter Gene Experiments in CHO cells
Agonist activity at human adenosine A3 receptors was measured in Chinese hamster ovary (CHO) cells containing the CRE/SPAP/HYG (CRE=cyclic AMP response element; HYG=hygromycin resistance; SPAP=secreted placental alkaline phosphatase) reporter gene elements, which upon stimulation of cAMP levels produced SPAP. A cell line was used which was stably transfected with the human adenosine A3 receptor in addition to the above elements. Cells were plated out in 96-well plates in culture medium and incubated at 37° C. for 1 hour. For measurement of potency, agonists were added to the appropriate wells at a concentration range of approximately 10^−10-10^−5M. 15 Min later, cAMP levels were stimulated by addition of a maximal concentration of forskolin. All cells were then incubated for a further 5 hours at 37° C., and cooled to room temperature, after which a substrate for the phosphatase (para-nitrophenol phosphate, pNPP), which is converted by SPAP to a coloured reagent) was then added and the 96-well plates were read in a plate reader. From these readings, the concentration-dependence of the inhibition by the agonist for forskolin-stimulated SPAP production can be calculated. As with the yeast assays, one of the agonists tested on each 96-well plate was the standard non-selective agonist, N-ethylcarboxamidoadenosine (NECA), and the potency of all test agonists is expressed relative to that of the NECA standard.

[2] = target: T2, human adenosine A1 receptors (Homo sapiens, UniProt P30542); assay: Reporter gene experiments in yeast (agonist activity, β-galactosidase/FDG readout); assay type: cell-based; parameters: key: equipotent concentration ratio relative to NECA = 1; conditions: ECR = equipotent concentration ratio relative to NECA = 1; agonist potency, yeast reporter gene assay
T2 construct: expressed in transfected cells
T2 sequence (P30542 1-326): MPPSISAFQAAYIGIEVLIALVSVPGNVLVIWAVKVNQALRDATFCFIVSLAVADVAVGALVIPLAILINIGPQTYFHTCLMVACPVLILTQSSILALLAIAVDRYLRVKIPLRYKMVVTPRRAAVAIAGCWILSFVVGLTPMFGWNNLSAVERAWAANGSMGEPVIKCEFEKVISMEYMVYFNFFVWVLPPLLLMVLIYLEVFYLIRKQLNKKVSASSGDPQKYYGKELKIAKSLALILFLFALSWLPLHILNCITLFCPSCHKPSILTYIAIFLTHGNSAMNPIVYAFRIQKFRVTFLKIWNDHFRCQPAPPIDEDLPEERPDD
Method: Reporter Gene Experiments in Yeast
Agonist activity at human adenosine A1 receptors was measured in yeast cell lines expressing the adenosine A1 receptor together with a chimeric G-protein which linked receptor stimulation to the expression of the enzyme β-galactosidase. Cells were plated out in 96-well plates in culture medium to which was added 2 mM 3-AT (3-aminotriazole) to limit basal growth in the absence of agonist stimulation, and FDG (fluorescein di-β-D-galactopyranoside) as substrate for β-galactosidase, which converts FDG to fluorescein. For measurement of potency, agonists were added to the appropriate wells at a concentration range of approximately 10^−10-10^−5M and incubated at 30° C. for 18 hours. At this point the amount of fluorescein generated was measured in a spectrophotometer. From these readings, the concentration-dependence of the stimulation by the agonist can be calculated. One of the agonists tested on each 96-well plate was the standard non-selective agonist, N-ethylcarboxamidoadenosine (NECA), and the potency of all test agonists is expressed relative to that of the NECA standard.
(ECR=equipotent concentration ratio relative to NECA=1)

SMILES: C#C[C@H]1O[C@@H](n2cnc3c(N[C@@H]4CCC[C@]4(OC)c4ccccc4)ncnc32)[C@H](O)[C@@H]1O (relative stereo) [Example 9, (2R,3R,4S,6R)-5-Ethynyl-2-(6-{[(1R*,2S*)-2-methoxy-2-phenylcyclopentyl]amino}-9H-purin-9-yl)tetrahydrofuran-3,4-diol]
Adenosine A3 receptor ECR* [1]: >165
Adenosine A1 receptor ECR* [2]: 23.81

SMILES: C#C[C@H]1O[C@@H](n2cnc3c(NC4CCCC4)ncnc32)[C@H](O)[C@@H]1O [Example 12]
Adenosine A3 receptor ECR* [1]: >80.2
Adenosine A1 receptor ECR* [2]: 4.47

SMILES: C#C[C@H]1O[C@@H](n2cnc3c(N[C@@H]4CCO[C@@H]4C)ncnc32)[C@H](O)[C@@H]1O [Example 13, (2R,3R,4S,5R)-5-Ethynyl-2-(6-{[(2R,3R)-2-methyltetrahydrofuran-3-yl]amino}-9H-purin-9-yl)tetrahydrofuran-3,4-diol]
Adenosine A3 receptor ECR* [1]: >386
Adenosine A1 receptor ECR* [2]: 18.86

SMILES: C#C[C@H]1O[C@@H](n2cnc3c(NC4CC4(C)C)ncnc32)[C@H](O)[C@@H]1O (stereo partly drawn) [Example 18, (2R,3R,4S,5R)-2-{6-[(2,2-Dimethylcyclopropyl)amino]-9H-purin-9-yl}-5-ethynyltetrahydrofuran-3,4-diol]
Adenosine A3 receptor ECR* [1]: >3208
Adenosine A1 receptor ECR* [2]: 6.81

The next lines start with the values.

Adenosine A3 receptor ECR* [1]: >168
Adenosine A1 receptor ECR* [2]: 7.36
SMILES: C#C[C@H]1O[C@@H](n2cnc3c(Nc4ccc(Cl)cc4C)ncnc32)[C@H](O)[C@@H]1O [Example 39, (2R,3R,4S,5R)-2-{6-[(4-Chloro-2-methylphenyl)amino]-9H-purin-9-yl}-5-ethynyltetrahydrofuran-3,4-diol]

Adenosine A3 receptor ECR* [1]: >505
Adenosine A1 receptor ECR* [2]: 16.94
SMILES: C#C[C@H]1O[C@@H](n2cnc3c(Nc4cc(Cl)ccc4C)ncnc32)[C@H](O)[C@@H]1O [Example 40, (2R,3R,4S,5R)-2-{6-[(5-chloro-2-methylphenyl)amino]-9H-purin-9-yl}-5-ethynyltetrahydrofuran-3,4-diol]

Adenosine A3 receptor ECR* [1]: >1070
Adenosine A1 receptor ECR* [2]: 7.94
SMILES: C#C[C@H]1O[C@@H](n2cnc3c(Nc4ccc(F)cc4F)ncnc32)[C@H](O)[C@@H]1O [Example 32, (2R,3R,4S,5R)-2-{6-[(2,4-Difluorophenyl)amino]-9H-purin-9-yl}-5-ethynyltetrahydrofuran-3,4-diol]
